“Also recorded” adds a separate entry of the source. * marks the point of attachment. C16 alkyl = CCCCCCCCCCCCCCCC*
How the values were obtained:
[1] = tested on: Rat Bladder Augmentation Model; experiment: Granuloma quantification (CD68 immunofluorescence) in augmented bladder tissue; type: in vivo
Text: Granulation tissue is composed of several extracellular matrices such as collagen and a variety of immune cell types including lymphocytes, neutrophils, and especially macrophages (refs. 54-56; herein incorporated by reference in their entireties). Extravesical granulomas were found in regenerating bladder muscle and submucosa but not in the epithelial layer (urothelium) that lines the interior of the bladder wall. […] Granulation tissue was identified by a trained Pathologist (M.D.H.) utilizing immunofluorescence imaging with the macrophage marker CD68 (green). […] Images are representative examples of multiple stained tissue samples. See Table 1 for granuloma quantification. Magnification 100× (Scale bar, 200 μm).
(§1) Athymic female rats (weighing ˜200 g and 8-10 weeks old; National Cancer Institute Animal Production Program) underwent bladder augmentation (ref. 15; herein incorporated by reference in its entirety). Athymic rats were chosen for this study to solely examine the innate immune response to inflammation without influence of the adaptive immune response. In order to induce anesthesia, animals were given intraperitoneal injections of 60 mg/kg ketamine and 5 mg/kg xylazine. A second injection consisting of Buprenex (1 mg/kg) was administered subcutaneously to alleviate any pain/discomfort during and following surgical procedures. An approximate 1.5 cm midline vertical skin incision was created to expose the abdominal fascia and muscles. This was immediately followed by the separation of the wall leading to the identification of the bladder. An approximate 70% supratrigonal cystectomy was performed from anterior to posterior creating a clamshell. Immediately prior to bladder augmentation procedures, samples of the pro-inflammatory biological scaffold, small intestinal submucosa (SIS (0.5×0.5 cm); Cook Biotech.) (refs. 12,13,16; herein incorporated by reference in their entireties) were thoroughly dip-coated separately in one of the previously described AIF-PAs following gelation procedures. The sections of SIS were dip-coated for approximately 20 seconds and allowed to adhere to the SIS for an additional 30 seconds. Dip-coating procedures were performed at room temperature in air. The cystectomized bladder defect was then augmented with: 1) SIS (non-AIF-PA coated SIS; n=8 animals over both time-points); 2) AIF-PA1 coated SIS (denoted as SIS/AIF-PA1; n=11 animals over both time-points); 3) AIF-PA2 coated SIS (denoted as SIS/AIF-PA2; n=8 animals over both time-points); 4) AIF-PA3 coated SIS (denoted as SIS/AIF-PA3; n=3); 5) AIF-PA4 coated SIS (denoted as SIS/AIF-PA4; n=3 animals); 6) AIF-PA5 coated SIS (denoted as SIS/AIF-PA5; n=3 animals); and 7) AIFC-PA6 coated SIS (denoted as SIS/AIFC-PA6; n=9 animals over both time-points). The bladder was finally covered with omentum after being closed in a watertight manner utilizing 7-0 polyglactin suture. The abdominal wall was then closed in a single layer with 5-0 ethibond running suture and the skin re-approximated with 9 mm autoclips. Each group was sacrificed at 10 day and 5 week time-points.
Tissue sections comprised of SIS alone, SIS/AIF-PA1, SIS/AIF-PA2, and SIS/AIF-PA6 augmentations were subjected to immunofluorescence staining by initially undergoing antigen retrieval which consisted of 15 min of boiling in citrate buffer (0.01M citrate solution, pH 6.0 with 0.05% Tween-20) followed by cooling at room temperature for approximately 20 minutes. The antibody staining process consisted of a blocking step for 15 min in bovine serum albumin (BSA, 5 mg/ml) followed by a 40 minutes incubation at room temperature with the primary antibody. After washing with DPBS, slides were incubated for 30 min with a secondary antibody and eventually rinsed with DPBS and air dried. Slides were mounted with Vectashield (Vector Laboratories). […]

[2] = tested on: MPO+ neutrophils; experiment: Immunofluorescence quantification of MPO+ neutrophils in regenerated bladder tissue; type: in vivo, rat
Experimental: as §1
(§2) Tissue sections comprised of SIS alone, SIS/AIF-PA1, SIS/AIF-PA2, and SIS/AIF-PA6 augmentations were subjected to immunofluorescence staining by initially undergoing antigen retrieval which consisted of 15 min of boiling in citrate buffer (0.01M citrate solution, pH 6.0 with 0.05% Tween-20) followed by cooling at room temperature for approximately 20 minutes. The antibody staining process consisted of a blocking step for 15 min in bovine serum albumin (BSA, 5 mg/ml) followed by a 40 minutes incubation at room temperature with the primary antibody. After washing with DPBS, slides were incubated for 30 min with a secondary antibody and eventually rinsed with DPBS and air dried. Slides were mounted with Vectashield (Vector Laboratories). Primary antibodies were directed against epitopes for the inflammatory markers CD68 (macrophage) (refs. 18,19; herein incorporated by reference in their entireties) MPO (neutrophil) (ref. 20; herein incorporated by reference in its entirety) or the inflammation-related proteins IL1β, TNFα, IL-10, IL-13, CD206 (M2 macrophage) (refs. 21-25; herein incorporated by reference in their entireties) and CD86 (M1 macrophage) (ref. 26; herein incorporated by reference in its entirety). Antibodies directed against the ECM in regenerating bladder tissue (including COL4A3 and fibronectin) were also utilized. Alexa Red 555 or FITC conjugated secondary antibodies (Molecular Probes) were utilized for visualization (ref. 15; herein incorporated by reference in its entirety). […]

[3] = tested on: CD86+ M1 macrophages; experiment: M1 macrophage subtype (CD86) distribution in regenerating bladder tissue; type: in vivo, rat; conditions: for M1 macrophage levels, in words: 10 days to 5 weeks
Experimental: as §1, §2

[4] = tested on: IL-1β; experiment: IL-1β expression in regenerated bladder tissue (immunofluorescence); type: in vivo, rat; conditions: for Cytokine expression (shown as percentage of cells staining positive) Pro-inflammatory IL-1β: 5 weeks post-augmentation, means ± SE; for percentage of cells staining positive for IL-1β: 10 days post-augmentation
Experimental: as §1, §2

[5] = tested on: TNFα; experiment: TNFα expression in regenerated bladder tissue (immunofluorescence); type: in vivo, rat; conditions: for Cytokine expression (shown as percentage of cells staining positive) Pro-inflammatory TNFα: 5 weeks post-augmentation, means ± SE; for percentage of cells staining positive for TNFα: 10 days post-augmentation
Experimental: as §1, §2

[6] = tested on: IL-10; experiment: IL-10 expression in regenerated bladder tissue (immunofluorescence); type: in vivo, rat; conditions: for Cytokine expression (shown as percentage of cells staining positive) Anti-inflammatory IL-10: 5 weeks post-augmentation, means ± SE; for percentage of cells staining positive for IL-10: 10 days post-augmentation
Experimental: as §1, §2

[7] = tested on: IL-13; experiment: IL-13 expression in regenerated bladder tissue (immunofluorescence); type: in vivo, rat; conditions: for Cytokine expression (shown as percentage of cells staining positive) Anti-inflammatory IL-13: 5 weeks post-augmentation, means ± SE; for percentage of cells staining positive for IL-13: 10 days post-augmentation
Experimental: as §1, §2

[8] = tested on: Rat Bladder Augmentation Model; experiment: Bladder stone formation in regenerating bladders; type: in vivo; conditions: for Bladder Stone Formation (shown as percentage of animals forming stones): 5 weeks post-augmentation; for size of bladder stones formed, in words: rat, in vivo
Text: Bladder stone formation can be caused by a myriad of factors including those based upon diet as well as genetic makeup and underlying bladder conditions (refs. 57,58; herein incorporated by reference in its entirety).
as §1

Row | Substance | Maximum Granuloma Size ([1]; 5W post-augmentation) | Mean Granuloma Size ([1]; 5W post-augmentation) | Minimum Granuloma Size ([1]; 5W post-augmentation) | Number of Granulomas ([1]; 5W post-augmentation) | Number of Large Granulomas (>0.01 mm^2) ([1]; 5W post-augmentation) | granuloma formation, in words ([1]; 5W samples) | Maximum Granuloma Size ([1]; 10D post-augmentation) | Mean Granuloma Size ([1]; 10D post-augmentation) | Minimum Granuloma Size ([1]; 10D post-augmentation) | Number of Granulomas ([1]; 10D post-augmentation) | Number of Large Granulomas (>0.01 mm^2) ([1]; 10D post-augmentation) | granuloma formation, in words ([1]; 10 day samples) | percentage of cells positive for MPO ([2]; 5 weeks post-augmentation) [%] | number of M1 macrophages ([3]; 5W post-augmentation) [cells/mm^2] | Cytokine expression (shown as percentage of cells staining positive) Pro-inflammatory IL-1β [4] [percentage] | percentage of cells staining positive for IL-1β [4] [%] | Cytokine expression (shown as percentage of cells staining positive) Pro-inflammatory TNFα [5] [percentage] | percentage of cells staining positive for TNFα [5] [%] | Cytokine expression (shown as percentage of cells staining positive) Anti-inflammatory IL-10 [6] [percentage] | percentage of cells staining positive for IL-10 [6] [%] | further results
1 | C16-VVVAAAEEEHDMNKVLDL (SEQ ID NO:2) ({C16 alkyl}-VVVAAAEEEHDMNKVLDL-NH2) [SIS/AIF-PA2, anti-inflammatory peptide amphiphile, tested dip-coated on small intestinal submucosa (SIS) scaffold] | 4.08 ± 0.38 10^-3 mm^2 | 3.00 ± 0.20 10^-3 mm^2 | 2.09 ± 0.39 10^-3 mm^2 | 3.00 ± 1.00 | 0 | diminished | 11.99 ± 3.62 10^-3 mm^2 | 5.95 ± 1.16 10^-3 mm^2 | 2.65 ± 0.17 10^-3 mm^2 | 4.00 ± 1.00 | 0.67 ± 0.33 | lesser degree of granuloma formation in size and frequency | 7.2±1.1 | 389.4±62.6 | 11.5 ± 2.7 | 21.2±2.4 | 14.6 ± 1.7 | 26.3±2.5 | 33.2 ± 2.3 | 56.2±3.4 | percentage of cells positive for MPO ([2]; 10 days post-augmentation): 9.0±0.5%; M1 macrophage levels, in words [3]: Comparatively low numbers; Cytokine expression (shown as percentage of cells staining positive) Anti-inflammatory IL-13 [7]: 32.0 ± 1.8 percentage; percentage of cells staining positive for IL-13 [7]: 41.2±2.2%; Bladder Stone Formation (shown as percentage of animals forming stones) [8]: 16.7 percentage; size of bladder stones formed, in words [8]: a fraction of the size found in control animals
2 | C16-VVVAAAEEEKLMSQKMVD (SEQ ID NO:6) ({C16 alkyl}-VVVAAAEEEKLMSQKMVD-NH2) [SIS/AIFC-PA6, reference compound] | 14.80 ± 2.30 10^-3 mm^2 | 6.10 ± 0.51 10^-3 mm^2 | 2.21 ± 0.30 10^-3 mm^2 | 7.00 ± 1.08 | 1.00 ± 0.41 | accumulation of granulomas | 110.89 ± 1.51 10^-3 mm^2 | 29.64 ± 0.74 10^-3 mm^2 | 6.12 ± 0.01 10^-3 mm^2 | 10.00 ± 1.00 | 6.00 ± 1.00 | large granuloma formation | 17.6±1.8 | 957.7±106.2 | 42.9 ± 1.8 | 63.3±2.4 | 42.8 ± 2.2 | 65.1±5.1 | 21.1 ± 2.1 | 27.8±3.0 | number of M1 macrophages ([3]; 10D post-augmentation): 986.9±18.1 cells/mm^2; Cytokine expression (shown as percentage of cells staining positive) Anti-inflammatory IL-13 [7]: 20.4 ± 2.6 percentage; percentage of cells staining positive for IL-13 [7]: 28.6±3.0%; Bladder Stone Formation (shown as percentage of animals forming stones) [8]: 42.9 percentage; size of bladder stones formed, in words [8]: quite large in size
3 | C16-VVVAAAEEEMQMKKVLDS (SEQ ID NO:1) ({C16 alkyl}-VVVAAAEEEMQMKKVLDS-NH2) [SIS/AIF-PA1, anti-inflammatory peptide amphiphile, tested dip-coated on small intestinal submucosa (SIS) scaffold] | 1.62 ± 1.15 10^-3 mm^2 | 1.26 ± 0.68 10^-3 mm^2 | 0.97 ± 0.65 10^-3 mm^2 | 1.75 ± 1.03 | 0 | diminished | 23.39 ± 7.66 10^-3 mm^2 | 8.77 ± 1.32 10^-3 mm^2 | 2.67 ± 0.15 10^-3 mm^2 | 4.00 ± 1.00 | 1.33 ± 0.33 | lesser degree of granuloma formation in size and frequency | 5.2±0.7 | 343.4±45.4 | 12.9 ± 2.0 | 28.2±2.4 | 17.4 ± 2.9 | 32.8±2.5 | 30.0 ± 1.6 | 52.0±3.1 | percentage of cells positive for MPO ([2]; 10 days post-augmentation): 6.9±0.7%; M1 macrophage levels, in words [3]: dropped considerably; also recorded: significant decline over time; Cytokine expression (shown as percentage of cells staining positive) Anti-inflammatory IL-13 [7]: 26.1 ± 2.7 percentage; percentage of cells staining positive for IL-13 [7]: 48.2±2.8%; Bladder Stone Formation (shown as percentage of animals forming stones) [8]: 25.0 percentage; size of bladder stones formed, in words [8]: a fraction of the size found in control animals

Source: US11161876B2, “Anti-inflammatory nanofibers” (Northwestern University, priority 2015, dated 2021)
